According to patent US20240366599A1, “HUMAN EFFICACIOUS DOSE AND DOSAGE SCHEDULE OF SPR720” (SPERO THERAPEUTICS, INC., priority 2021, published 2024):

How the values were obtained:
Assay type in all cases: in vivo, human
[1] = Multiple ascending dose (MAD) study: safety and tolerability
Description: The multiple ascending dose study utilized 5 cohorts of 8 subjects. Three cohorts were administered a total daily dose of 500 mg to 1500 mg in the fasted state for 7 days. Two cohorts were administered a total daily dose of 500 mg or 1000 mg in the fed state for 14 days. Safety was also monitored throughout the study. […] This conclusion was further supported by stable SPR719 trough concentrations by Day 7 (data not shown). Mean plasma concentration/time curves are shown for the MAD cohorts at days 1 (FIG. 3A), 7 (FIG. 3B), and 14 (FIG. 3C). 2.

[2] = Single ascending dose (SAD) study: pharmacokinetics of SPR719 after oral SPR720; conditions: SPR720 1000 mg, fed vs fasted; considered non-clinically significant
Description: (§1) The following study was conducted in healthy volunteers to evaluate the safety, tolerability, and pharmacokinetics of SPR720/SPR719. The study included 7 SAD cohorts, of which one was a food effect cohort. SPR720 or placebo (n=8/cohort, 3:1 randomization) were administered to subjects at doses of 100 to 2000 mg in the fasted or fed state. The cohorts administered SPR720 in the fed state were administered 1000 mg or 500 mg (healthy elderly cohort) SPR720. A schematic of the study design appears in FIG. 1.

[3] = Single ascending dose (SAD) study: safety and tolerability
Description: as §1

[4] = MAD Cohort 1, 500 mg 7 days, fasted, N=6
[5] = MAD Cohort 2, 1000 mg 7 days, fasted, N=6
[6] = MAD Cohort 3, 750 mg q12 h 7 days, fasted, N=6
[7] = MAD Cohort 4, 500 mg 14 days, fed, N=6
[8] = MAD Cohort 5, 1000 mg 14 days, fed, N=6
[9] = SAD Cohort 4, 1000 mg Fasted, N=6

Food effect: plasma exposure after high fat meal relative to fasted state [2]: no significant food effect
Structure (SMILES): CCNC(=O)Nc1nc2cc(-c3cnc(C(C)(C)OP(=O)(O)O)cn3)c(F)c([C@H]3CCCO3)c2[nH]1 [SPR720, fobrepodacin]
Subjects reporting TEAEs ([1]; MAD 1000 mg cohorts): 50.0%
Subjects reporting TEAEs ([1]; MAD 1500 mg (750 mg q12h) cohort): 66.7%
Incidence of TEAE: Abdominal Pain [1, 4]: 0 Number (%) of Subjects
Incidence of TEAE: Diarrhea (first line) [1, 4]: 2 (33.3) Number (%) of Subjects
Incidence of TEAE: Diarrhea (second line) [1, 4]: 0 Number (%) of Subjects
Incidence of TEAE: Headache [1, 4]: 2 (33.3) Number (%) of Subjects
Incidence of TEAE: Nausea [1, 4]: 2 (33.3) Number (%) of Subjects
Incidence of TEAE: Vomiting [1, 4]: 1 (16.7) Number (%) of Subjects
Incidence of TEAE: Abdominal Pain [1, 5]: 1 (16.7) Number (%) of Subjects
Incidence of TEAE: Diarrhea (first line) [1, 5]: 4 (66.7) Number (%) of Subjects
Incidence of TEAE: Diarrhea (second line) [1, 5]: 2 (33.3) Number (%) of Subjects
Incidence of TEAE: Headache [1, 5]: 3 (50.0) Number (%) of Subjects
Incidence of TEAE: Nausea [1, 5]: 1 (16.7) Number (%) of Subjects
Incidence of TEAE: Vomiting [1, 5]: 2 (33.3) Number (%) of Subjects
Incidence of TEAE: Abdominal Pain [1, 6]: 0 Number (%) of Subjects
Incidence of TEAE: Diarrhea (first line) [1, 6]: 4 (66.7) Number (%) of Subjects
Incidence of TEAE: Diarrhea (second line) [1, 6]: 1 (16.7) Number (%) of Subjects
Incidence of TEAE: Headache [1, 6]: 2 (33.3) Number (%) of Subjects
Incidence of TEAE: Nausea [1, 6]: 3 (50.0) Number (%) of Subjects
Incidence of TEAE: Vomiting [1, 6]: 1 (16.7) Number (%) of Subjects
Incidence of TEAE: Abdominal Pain [1, 7]: 0 Number (%) of Subjects
Incidence of TEAE: Diarrhea (first line) [1, 7]: 0 Number (%) of Subjects
Incidence of TEAE: Diarrhea (second line) [1, 7]: 0 Number (%) of Subjects
Incidence of TEAE: Headache [1, 7]: 1 (16.7) Number (%) of Subjects
Incidence of TEAE: Nausea [1, 7]: 0 Number (%) of Subjects
Incidence of TEAE: Vomiting [1, 7]: 0 Number (%) of Subjects
Incidence of TEAE: Abdominal Pain [1, 8]: 1 (16.7) Number (%) of Subjects
Incidence of TEAE: Diarrhea (first line) [1, 8]: 3 (50.0) Number (%) of Subjects
Incidence of TEAE: Diarrhea (second line) [1, 8]: 0 Number (%) of Subjects
Incidence of TEAE: Headache [1, 8]: 0 Number (%) of Subjects
Incidence of TEAE: Nausea [1, 8]: 1 (16.7) Number (%) of Subjects
Incidence of TEAE: Vomiting [1, 8]: 0 Number (%) of Subjects
Subjects who discontinued study drug due to increased pancreatic enzymes ([1]; MAD cohort 3 (750 mg q12h), asymptomatic, resolved without interventional treatment): One
Subjects reporting TEAEs ([1]; MAD overall, 18 of 30 subjects who received SPR720): 60.0%
Total number of TEAEs reported ([1]; MAD overall, 30 subjects): 101
Serious adverse events ([1]; MAD study): No serious adverse events
Severity of TEAEs ([1]; MAD, all TEAEs): mild or moderate
Incidence of TEAE: Abdominal Pain ([1]; Overall MAD SPR720, N=30): 2 (6.7) Number (%) of Subjects
Incidence of TEAE: Diarrhea (first line) ([1]; Overall MAD SPR720, N=30): 13 (42.3) Number (%) of Subjects
Incidence of TEAE: Diarrhea (second line) ([1]; Overall MAD SPR720, N=30): 3 (10.0) Number (%) of Subjects
Incidence of TEAE: Headache ([1]; Overall MAD SPR720, N=30): 8 (26.7) Number (%) of Subjects
Incidence of TEAE: Nausea ([1]; Overall MAD SPR720, N=30): 7 (23.3) Number (%) of Subjects
Incidence of TEAE: Vomiting ([1]; Overall MAD SPR720, N=30): 4 (13.3) Number (%) of Subjects
Cases of Hy's Law ([1]; over 14 days of dosing): no cases
Elevations in ALT ([1]; over 14 days of dosing, slight, asymptomatic and reversible): < 3 ×ULN
Tolerability ([1]; repeat daily oral doses up to 1000 mg over maximum duration of 14 days): well-tolerated
Incidence of TEAE: Diarrhea ([3]; SAD 500 mg Elderly, N=6): 0 Number (%) of Subjects
Incidence of TEAE: Headache ([3]; SAD 500 mg Elderly, N=6): 0 Number (%) of Subjects
Incidence of TEAE: Nausea ([3]; SAD 500 mg Elderly, N=6): 0 Number (%) of Subjects
Incidence of TEAE: Vomiting ([3]; SAD 500 mg Elderly, N=6): 0 Number (%) of Subjects
Subjects reporting TEAEs ([3]; SAD 1500 mg cohort): 66.7%
Subjects reporting TEAEs ([3]; SAD 2000 mg cohort): 100%
Incidence of TEAE: Diarrhea ([3]; SAD Cohort 1, 100 mg, N=6): 0 Number (%) of Subjects
Incidence of TEAE: Headache ([3]; SAD Cohort 1, 100 mg, N=6): 0 Number (%) of Subjects
Incidence of TEAE: Nausea ([3]; SAD Cohort 1, 100 mg, N=6): 0 Number (%) of Subjects
Incidence of TEAE: Vomiting ([3]; SAD Cohort 1, 100 mg, N=6): 0 Number (%) of Subjects
Incidence of TEAE: Diarrhea ([3]; SAD Cohort 2, 250 mg, N=6): 0 Number (%) of Subjects
Incidence of TEAE: Headache ([3]; SAD Cohort 2, 250 mg, N=6): 0 Number (%) of Subjects
Incidence of TEAE: Nausea ([3]; SAD Cohort 2, 250 mg, N=6): 0 Number (%) of Subjects
Incidence of TEAE: Vomiting ([3]; SAD Cohort 2, 250 mg, N=6): 0 Number (%) of Subjects
Incidence of TEAE: Diarrhea ([3]; SAD Cohort 3, 500 mg, N=6): 1 (16.7) Number (%) of Subjects
Incidence of TEAE: Headache ([3]; SAD Cohort 3, 500 mg, N=6): 0 Number (%) of Subjects
Incidence of TEAE: Nausea ([3]; SAD Cohort 3, 500 mg, N=6): 0 Number (%) of Subjects
Incidence of TEAE: Vomiting ([3]; SAD Cohort 3, 500 mg, N=6): 0 Number (%) of Subjects
Incidence of TEAE: Diarrhea [3, 9]: 0 Number (%) of Subjects
Incidence of TEAE: Headache [3, 9]: 1 (16.7) Number (%) of Subjects
Incidence of TEAE: Nausea [3, 9]: 0 Number (%) of Subjects
Incidence of TEAE: Vomiting [3, 9]: 0 Number (%) of Subjects
Incidence of TEAE: Diarrhea ([3]; SAD Cohort 4, 1000 mg Fed, N=6): 0 Number (%) of Subjects
Incidence of TEAE: Headache ([3]; SAD Cohort 4, 1000 mg Fed, N=6): 0 Number (%) of Subjects
Incidence of TEAE: Nausea ([3]; SAD Cohort 4, 1000 mg Fed, N=6): 0 Number (%) of Subjects
Incidence of TEAE: Vomiting ([3]; SAD Cohort 4, 1000 mg Fed, N=6): 0 Number (%) of Subjects
Incidence of TEAE: Diarrhea ([3]; SAD Cohort 5, 1500 mg, N=6): 0 Number (%) of Subjects
Incidence of TEAE: Headache ([3]; SAD Cohort 5, 1500 mg, N=6): 3 (50.0) Number (%) of Subjects
Incidence of TEAE: Nausea ([3]; SAD Cohort 5, 1500 mg, N=6): 4 (66.7) Number (%) of Subjects
Incidence of TEAE: Vomiting ([3]; SAD Cohort 5, 1500 mg, N=6): 3 (50.0) Number (%) of Subjects
Incidence of TEAE: Diarrhea ([3]; SAD Cohort 6, 2000 mg, N=6): 2 (33.3) Number (%) of Subjects
Incidence of TEAE: Headache ([3]; SAD Cohort 6, 2000 mg, N=6): 3 (50.0) Number (%) of Subjects
Incidence of TEAE: Nausea ([3]; SAD Cohort 6, 2000 mg, N=6): 5 (83.3) Number (%) of Subjects
Incidence of TEAE: Vomiting ([3]; SAD Cohort 6, 2000 mg, N=6): 5 (83.3) Number (%) of Subjects
Incidence of TEAE: Diarrhea ([3]; SAD Overall SPR720, n=42): 3 (7.1) Number (%) of Subjects
Incidence of TEAE: Headache ([3]; SAD Overall SPR720, n=42): 7 (16.7) Number (%) of Subjects
Incidence of TEAE: Nausea ([3]; SAD Overall SPR720, n=42): 9 (21.4) Number (%) of Subjects
Incidence of TEAE: Vomiting ([3]; SAD Overall SPR720, n=42): 8 (19.0) Number (%) of Subjects
Subjects reporting TEAEs ([3]; SAD overall, 18 of 42 subjects): 42.9%
Total number of TEAEs reported ([3]; SAD overall, 42 subjects): 35
Serious adverse events ([3]; SAD study): No serious adverse events
Severity of TEAEs ([3]; SAD, all TEAEs): mild or moderate
